Test results: US20240018125A1, “CYCLIC ISOTHIOUREA DERIVATIVES AS CXCR4 MODULATORS” (ERMIUM THERAPEUTICS, priority 2020, published 2024)
Where a name gives a salt, the structure may show the parent alone.

test system: peripheral blood mononuclear cells (PBMCs) from healthy donors; assay: IFN production by R848-activated PBMCs, quantified with twINNE luciferase reporter cell line; format: cell-based, human; settings: Homo sapiens, PBMC; read-out: IC50 of anti-inflammatory activity (IFN production by activated PBMCs)
Experimental: The blood from healthy donors was obtained from “Etablissement Français du Sang” (convention #19/EFS/029), Paris, France.
In vitro experiments were performed using human peripheral blood mononuclear cells (PBMCs) isolated by density centrifugation from peripheral blood leukocyte separation medium, lymphoprep (Stemcell Technologies).
PBMCs were cultured in RPMI 1640 (Sigma-Aldrich, MO, USA) containing 10% heat-inactivated fetal bovine serum (Sigma-Aldrich, MO, USA) at 37° C./5% CO2.
The PBMCs used herein were prepared as described in part A “immune cells preparation”, above. PBMCs were seeded at 4.10^6/mL. Cells were pre-treated with different concentration of examples according to the invention. Cells were then stimulated with the TLR7/8 agonist resiquimod—R848 (Sigma-Aldrich, MO, USA) at 5 μg/mL.
To quantify the secretion of functional IFN, a biological assay based on a stable cell line where luciferase reporter gene is controlled by five Interferon-Stimulated Response Elements (twINNE cell line) was used. First, supernatants of R848-stimulated PBMCs (see part B above) were harvested after 24 h of stimulation and frozen at −20° C. for storage. Then, supernatants were dispensed in culture wells of a 96-well plate containing 35.103 twINNE cells per well in Dulbecco's Modified Eagle's Medium supplemented with 10% Foetal Bovine Serum, 100 U/mL Penicillin and 100 μg/mL Streptomycin (1% Pen-Strep) and 1 mM glutamine (Sigma-Aldrich, MO, USA) at 37° C./5% CO2. After 24 h of culture, luciferase activity was determined by adding 60 μL of Bright-Glo reagents (Promega, Wisconsin, USA) to culture wells and measuring bioluminescence with EnSpire Multimode Plate Reader (PerkinElmer, Massachusetts, USA). When stated, for IC50 calculation, dose-response curves fitted using the nonlin fit (variable slope) analysis in GraphPad Prism software (GraphPad Software, Califronia, USA).
IFN production was quantified (as specified in Materials and Methods, part C “quantification of interferon secretion”) using twINNE reporter cell line.

| SMILES | IC50 [µM] |
| --- | --- |
| Ic1cc2c(c(I)c1I)NC(SCCN1CCCC1)=NC2 [Example 134, 6,7,8-triiodo-2-((2-(pyrrolidin-1-yl)ethyl)thio)-1,4-dihydroquinazoline dihydrochloride] | ≤ 10 |
| Clc1ccc2c(c1)CN1C(CSC3=NCC(Cc4cccs4)N3)=CSC1=N2 (centres unmarked) [Example 64, 7-chloro-3-(((5-(thiophen-2-ylmethyl)-4,5-dihydro-1H-imidazol-2-yl)thio)methyl)-5H-thiazolo[2,3-b]quinazoline dihydrochloride] | ≤ 10 |
| c1ccc2c(c1)CN=C(SCCN1C[C@@H]3C[C@H]1CO3)N2 (stereo in doubt) [Example 139, (1S,4S)-5-(2-((1,4-dihydroquinazolin-2-yl)thio)ethyl)-2-oxa-5-azabicyclo[2.2.1]heptane dihydrochloride] | 10 to 32 |
| CC1(C)CN2C(CSC3=NCc4ccccc4CN3)=CSC2=N1 [Example 7, 3-(((2,5-dihydro-1H-benzo[e][1,3]diazepin-3-yl)thio)methyl)-6,6-dimethyl-5,6-dihydroimidazo[2,1-b]thiazole dihydrochloride] | > 32 |
| FC1(F)CC12CCN(CCSC1=NCc3ccccc3N1)C2 (centres unmarked) [Example 132, 2-((2-(1,1-difluoro-5-azaspiro[2.4]heptan-5-yl)ethyl)thio)-3,4-dihydroquinazoline] | 10 to 32 |
| CC1(C)N=C(SCC2=CSC3=NC(Cc4ccccc4)CN23)Nc2ccccc21 (centres unmarked) [Example 87, 6-benzyl-3-(((4,4-dimethyl-1,4-dihydroquinazolin-2-yl)thio)methyl)-5,6-dihydroimidazo[2,1-b]thiazole dihydrochloride] | ≤ 10 |
| CC1(C)CN=C(SCC2=CSC3=Nc4ccccc4CN23)N1 [Example 5, 3-(((5,5-dimethyl-4,5-dihydro-1H-imidazol-2-yl)thio)methyl)-5H-thiazolo[2,3-b]quinazoline dihydrochloride] | 10 to 32 |
| C[C@@H](CN1CCCC1)SC1=NCc2cc(Cl)ccc2N1 [Example 168, (S)-6-chloro-2-((1-(pyrrolidin-1-yl)propan-2-yl)thio)-1,4-dihydroquinazoline dihydrochloride] | 10 to 32 |
| CC1(C)CN=C(SCC2=CSC3=NCc4ccccc4CN23)N1 [Example 8, 3-(((5,5-dimethyl-4,5-dihydro-1H-imidazol-2-yl)thio)methyl)-5,10-dihydrobenzo[e]thiazolo[3,2-a][1,3]diazepine dihydrochloride] | ≤ 10 |
| CC(C)N1CCN=C1SCC1=CSC2=Nc3ccc(Cl)cc3CN12 [Example 48, 7-chloro-3-(((1-isopropyl-4,5-dihydro-1H-imidazol-2-yl)thio)methyl)-5H-thiazolo[2,3-b]quinazoline dihydrochloride] | ≤ 10 |
| C1=C(CSC2=Nc3ccccc3C(c3ccccc3)N2)N2Cc3ccccc3CN=C2S1 (centres unmarked) [Example 27, 3-(((4-phenyl-3,4-dihydroquinazolin-2-yl)thio)methyl)-5,10-dihydrobenzo[e]thiazolo[3,2-a][1,3]diazepine dihydrochloride] | ≤ 10 |
| Fc1cccc2c1CN1C(CSC3=NCc4ccccc4N3)=CSC1=N2 [Example 18, 3-(((3,4-dihydroquinazolin-2-yl)thio)methyl)-6-fluoro-5H-thiazolo[2,3-b]quinazoline dihydrochloride] | ≤ 10 |
| CC1(c2ccccc2)CN2C(CSC3=NCc4ccccc4N3)=CSC2=N1 (centres unmarked) [Example 38, 3-(((3,4-dihydroquinazolin-2-yl)thio)methyl)-6-methyl-6-phenyl-5,6-dihydroimidazo[2,1-b]thiazole dihydrochloride] | ≤ 10 |
| c1ccc2c(c1)CCN=C(SCc1ccncc1)N2 [Example 188, 2-((pyridin-4-ylmethyl)thio)-4,5-dihydro-1H-benzo[d][1,3]diazepine dihydrochloride] | 10 to 32 |
| C(CCN1CCCC1)CSC1=NCC2(CC2)N1 [Example 185, 5-((4-(pyrrolidin-1-yl)butyl)thio)-4,6-diazaspiro[2.4]hept-5-ene dihydrochloride] | > 32 |
| c1ccc2c(c1)CN=C(SCCN1CCC3(CCCC3)C1)N2 [Example 142, 2-((2-(2-azaspiro[4.4]nonan-2-yl)ethyl)thio)-1,4-dihydroquinazoline dihydrochloride] | ≤ 10 |
| c1ccc(C2CCN(CCSC3=NCc4ccccc4N3)C2)cc1 (centres unmarked) [Example 140, 2-((2-(3-phenylpyrrolidin-1-yl)ethyl)thio)-1,4-dihydroquinazoline dihydrochloride] | ≤ 10 |
| Clc1ccc2c(c1)CN=C(SCCN1CCCC1)N2 [Example 59, 6-chloro-2-((2-(pyrrolidin-1-yl)ethyl)thio)-1,4-dihydroquinazoline dihydrochloride] | ≤ 10 |

| SMILES | IC50 [µM] |
| --- | --- |
| c1ccc2c(c1)CN=C(SCCN1CCOCC1)N2 [Example 155, 4-(2-((1,4-dihydroquinazolin-2-yl)thio)ethyl)morpholine dihydrochloride] | > 32 |
| Brc1ccc2c(c1)CN1C(CSC3=NCc4ccccc4N3)=CSC1=N2 [Example 69, 7-bromo-3-(((1,4-dihydroquinazolin-2-yl)thio)methyl)-5H-thiazolo[2,3-b]quinazoline dihydrochloride] | ≤ 10 |
| CC1(C)N=C(SCCCCN2CCCC2)Nc2ccccc21 [Example 160, 4,4-dimethyl-2-((4-(pyrrolidin-1-yl)butyl)thio)-1,4-dihydroquinazoline dihydrochloride] | > 32 |
| Clc1ccc2c(c1)CN1C(CSC3=NCCN3)=CSC1=N2 [Example 4, 7-chloro-3-(((4,5-dihydro-1H-imidazol-2-yl)thio)methyl)-5H-thiazolo[2,3-b]quinazoline dihydrochloride] | ≤ 10 |
| CC1(c2ccccc2)CN=C(SCCN2CCCC2)N1 (centres unmarked) [Example 131, 5-methyl-5-phenyl-2-((2-(pyrrolidin-1-yl)ethyl)thio)-4,5-dihydro-1H-imidazole dihydrochloride] | 10 to 32 |
| Clc1cccc2c1NC(SCCCCN1CCCC1)=NC2 [Example 153, 8-chloro-2-((4-(pyrrolidin-1-yl)butyl)thio)-1,4-dihydroquinazoline dihydrochloride] | ≤ 10 |
| c1ccc(CC2CN=C(SCCN3CCCCCC3)N2)cc1 (centres unmarked) [Example 58, 1-(2-((5-benzyl-4,5-dihydro-1H-imidazol-2-yl)thio)ethyl)azepane dihydrochloride] | 10 to 32 |
| Clc1ccc2c(c1)CN1C(CSC3=NCCc4ccccc4N3)=CSC1=N2 [Example 76, 7-chloro-3-(((4,5-dihydro-1H-benzo[d][1,3]diazepin-2-yl)thio)methyl)-5H-thiazolo[2,3-b]quinazoline dihydrochloride] | 10 to 32 |
| C1=C(CSC2=N[C@@H]3CCCC[C@H]3N2)N2Cc3ccccc3N=C2S1 [Example 32, 3-((((3aR,7aR)-3a,4,5,6,7,7a-hexahydro-1H-benzo[d]imidazol-2-yl)thio)methyl)-5H-thiazolo[2,3-b]quinazoline dihydrochloride] | ≤ 10 |
| COc1ccc(C[C@@H]2CN3C(CSC4=NCc5ccccc5N4)=CSC3=N2)cc1 [Example 124, (R)-3-(((1,4-dihydroquinazolin-2-yl)thio)methyl)-6-(4-methoxybenzyl)-5,6-dihydroimidazo[2,1-b]thiazole dihydrochloride] | ≤ 10 |
| Brc1cccc2c1N=C1SC=C(CSC3=NCc4ccccc4N3)N1C2 [Example 85, 9-bromo-3-(((1,4-dihydroquinazolin-2-yl)thio)methyl)-5H-thiazolo[2,3-b]quinazoline dihydrochloride] | ≤ 10 |
| F[C@@H]1CCN(CCSC2=NCc3ccccc3N2)C1 [Example 157, (R)-2-((2-(3-fluoropyrrolidin-1-yl)ethyl)thio)-1,4-dihydroquinazoline dihydrochloride] | 10 to 32 |
| O=C1CCCN1CCSC1=NCc2ccccc2N1 [Example 135, 1-(2-((1,4-dihydroquinazolin-2-yl)thio)ethyl)pyrrolidin-2-one hydrochloride] | > 32 |
| CC1(C)N=C(SCC2=CSC3=Nc4cccc(F)c4CN23)Nc2ccccc21 [Example 73, 3-(((4,4-dimethyl-1,4-dihydroquinazolin-2-yl)thio)methyl)-6-fluoro-5H-thiazolo[2,3-b]quinazoline dihydrochloride] | > 32 |
| C(CCN1CCCC1)CSC1=NCCN1 [Example 175, 2-((4-(pyrrolidin-1-yl)butyl)thio)-4,5-dihydro-1H-imidazole dihydrochloride] | > 32 |
| c1ccc2c(c1)CCN=C(SCCN1CCCc3ccccc31)N2 [Example 191, 2-((2-(3,4-dihydroquinolin-1(2H)-yl)ethyl)thio)-4,5-dihydro-1H-benzo[d][1,3]diazepine hydrochloride] | 10 to 32 |
| c1ccc2c(c1)CN=C(SC1CCCC[C@H]1N1CCCC1)N2 (stereo partly drawn) [Example 148, 2-(((2R)-2-(pyrrolidin-1-yl)cyclohexyl)thio)-1,4-dihydroquinazoline dihydrochloride] | ≤ 10 |
